Read-outs that look alike come from different tables or passages of the source.
Tested on: C. elegans
Test: microbe, parasite or virus in culture
Details: Caenorhabditis elegans
[1] = 0 h, read-out: Percentage of motility inhibition 0 h, Table S2, C. elegans SS assay, 110 μM, 0 h, averages of 4 data points
[2] = 24 h, read-out: Percentage of motility inhibition 24 h, Table S2, C. elegans SS assay, 110 μM, 24 h, averages of 4 data points
[3] = 0 h, read-out: Percentage of motility inhibition 0 h
[4] = 24 h, read-out: Percentage of motility inhibition 24 h

Row | SMILES | inhibition at 110 µM [1] [%] | inhibition at 110 µM [2] [%] | inhibition at 110 µM [3] [%] | inhibition at 110 µM [4] [%]
1 | C=C(NC(=O)C(=C)NC(=O)c1csc(C2=N[C@@H]3c4csc(n4)[C@H]4NC(=O)c5csc(n5)[C@H]([C@](C)(O)[C@@H](C)O)NC(=O)[C@H]5CSC(=N5)/C(=C/C)NC(=O)[C@H]([C@@H](C)O)NC(=O)c5csc(n5)[C@]3(CC2)NC(=O)[C@H](C)NC(=O)C(=C)NC(=O)[C@H](C)NC(=O)[C@H]([C@@H](C)CC)N[C@@H]2C=Cc3c([C@H](C)O)cc(nc3[C@H]2O)C(=O)O[C@@H]4C)n1)C(N)=O [Thiostrepton] | 11 | 31 |  | 
2 | Cc1ccc(C(C)C)c(O)c1 [Thymol] | 54 | 28 |  | 
3 | CN(C)c1cc(NC(=O)CNC(C)(C)C)c(O)c2c1C[C@H]1C[C@H]3[C@H](N(C)C)C(O)=C(C(N)=O)C(=O)[C@@]3(O)C(O)=C1C2=O [Tigecycline] | 31 | 19 |  | 
4 | O=C(/C=C/c1ccc(O)cc1)OC[C@H]1O[C@@H](Oc2c(-c3ccc(O)cc3)oc3cc(O)cc(O)c3c2=O)[C@H](O)[C@@H](O)[C@@H]1O [Tiliroside] |  |  | 2 | 9
5 | CCS(=O)(=O)CCn1c([N+](=O)[O-])cnc1C [Tinidazole] | 25 | 8 |  | 
6 | Clc1ccc(C(Cn2ccnc2)OCc2ccsc2Cl)c(Cl)c1 (stereo not drawn) [Tioconazole] | 30 | 43 |  | 
7 | O=C(Nc1ncc([N+](=O)[O-])s1)c1ccccc1O [Tizoxanide] | 40 | 53 |  | 
8 | NC[C@H]1O[C@H](O[C@H]2[C@H](O)[C@@H](O[C@H]3O[C@H](CO)[C@@H](O)[C@H](N)[C@H]3O)[C@H](N)C[C@@H]2N)[C@H](N)C[C@@H]1O [Tobramycin] | 9 | 0 |  | 
9 | COP(=S)(OC)Oc1c(Cl)cc(C)cc1Cl [Tolclofos‐methyl] | 35 | 20 |  | 
10 | Cc1cccc(N(C)C(=S)Oc2ccc3ccccc3c2)c1 [Tolnaftate] | 25 | 26 |  | 
11 | Cc1cc(-n2c(=O)[nH]c(=O)n(C)c2=O)ccc1Oc1ccc(SC(F)(F)F)cc1 [Toltrazuril] | 31 | 2 |  | 
12 | C[C@H]1CC[C@]2(NC1)O[C@H]1C[C@H]3[C@@H]4CC[C@H]5C[C@@H](O)CC[C@]5(C)[C@H]4CC[C@]3(C)[C@H]1[C@@H]2C [Tomatidine] | 6 | 0 |  | 
13 | CC(=O)O[C@@H]1C[C@H](O)[C@@]23CO[C@@H](O)[C@]1(C)[C@@H]2C[C@@H](O)[C@]1(C)[C@@H]3C(=O)[C@H](OC(C)=O)[C@@]2(C)[C@H](c3ccoc3)C[C@H]3O[C@]321 [Toosendanin] | 0 | 7 |  | 
14 | O=C(O)c1cc(=O)c2ccccc2[nH]1 [Transtorine] |  | 0 |  | 
15 | COc1cc(-c2cc(=O)c3c(O)cc(O)cc3o2)cc(OC)c1O [Tricin] | 31 | 2 |  | 
16 | O=C(Nc1ccc(Cl)cc1)Nc1ccc(Cl)c(Cl)c1 [Triclocarban] | 15 | 20 |  | 
17 | Oc1cc(Cl)ccc1Oc1ccc(Cl)cc1Cl [Triclosan] | 45 | 60 |  | 
18 | OC[C@H]1O[C@@H](Oc2ccc3c(c2)OC[C@H]2c4cc5c(cc4O[C@@H]32)OCO5)[C@H](O)[C@@H](O)[C@@H]1O [Trifolirhizin] | 11 | 0 |  | 
19 | C[n+]1cccc(C(=O)[O-])c1 [Trigonelline] | 0 | 0 |  | 
20 | COc1cc(NCc2ccc3nc(N)nc(N)c3c2C)cc(OC)c1OC [Trimetrexate] | 15 | 0 |  | 
21 | Cc1cc2cc3c(C)cc(=O)oc3c(C)c2o1 [Trioxsalen] | 6 | 7 |  | 
22 | CC(C)c1ccc2c(c1O)CC[C@H]1C3=C(CC[C@]21C)C(=O)OC3 [Triptophenolide] | 11 | 40 |  | 
23 | CN1[C@@H]2CC[C@H]1C[C@@H](O)C2 [Tropine] | 9 | 0 |  | 
24 | O=C1c2ccccc2-n2c1nc1ccccc1c2=O [Tryptanthrin] |  |  | 11 | 0
25 | Nc1ncnc2c1ccn2[C@@H]1O[C@H](CO)[C@@H](O)[C@H]1O [Tubercidin] | 5 | 0 |  | 
26 | CC[C@@H]1[C@H]2CCCCN3[C@H]2[C@H](C[C@H]3[C@@H]2C[C@H](C)C(=O)O2)[C@@H]2[C@H]1OC(=O)[C@H]2C [Tuberostemonine] | 6 | 4 |  | 
27 | CC[C@H]1OC(=O)C[C@@H](O)[C@H](C)[C@@H](O[C@@H]2O[C@H](C)[C@@H](O[C@H]3C[C@@](C)(O)[C@@H](O)[C@H](C)O3)[C@H](N(C)C)[C@H]2O)[C@@H](CC=O)C[C@@H](C)C(=O)/C=C/C(C)=C/[C@@H]1CO[C@@H]1O[C@H](C)[C@@H](O)[C@@H](OC)[C@H]1OC [Tylosin] | 22 | 0 |  | 

Row | SMILES | inhibition at 110 µM [1] [%] | inhibition at 110 µM [2] [%] | inhibition at 110 µM [3] [%] | inhibition at 110 µM [4] [%]
28 | O=c1cc[nH]c(=O)[nH]1 [Uracil] | 0 | 0 |  | 
29 | O=c1ccn([C@@H]2O[C@H](CO)[C@@H](O)[C@H]2O)c(=O)[nH]1 [Uridine] | 0 | 10 |  | 
30 | C[C@H]1[C@H](C)CC[C@]2(C(=O)O)CC[C@]3(C)C(=CC[C@@H]4[C@@]5(C)CC[C@H](O)C(C)(C)[C@@H]5CC[C@]43C)[C@H]12 [Ursolic acid] | 0 | 0 |  | 
31 | C[C@H]1[C@H](C)CC[C@]2(C(=O)O)CC[C@]3(C)C(=CC[C@@H]4[C@@]5(C)CCC(=O)C(C)(C)[C@@H]5CC[C@]43C)[C@H]12 [Ursonic acid] |  |  | 18 | 23
32 | C[C@H]1[C@H](C)CC[C@]2(CO)CC[C@]3(C)C(=CC[C@@H]4[C@@]5(C)CC[C@H](O)C(C)(C)[C@@H]5CC[C@]43C)[C@H]12 [Uvaol] | 19 | 2 |  | 
33 | CC(C)(C)C#Cc1cc(N(C(=O)[C@H]2CC[C@H](C)CC2)[C@H]2CC[C@H](O)CC2)c(C(=O)O)s1 [VX‐222] | 48 | 57 |  | 
34 | COc1cc(C=O)ccc1O [Vanillin] | 24 | 11 |  | 
35 | COC[C@H]1C[C@@H](c2nc(-c3ccc4c(c3)COc3cc5c(ccc6nc([C@@H]7CC[C@H](C)N7C(=O)[C@@H](NC(=O)OC)C(C)C)[nH]c65)cc3-4)c[nH]2)N(C(=O)[C@H](NC(=O)OC)c2ccccc2)C1 [Velpatasvir] | 19 | 1 |  | 
36 | COc1cc(O)c2c(=O)cc(-c3ccc(O)c(OC)c3)oc2c1 [Velutin] | 11 | 19 |  | 
37 | Cc1c([C@H](C)[C@@H]2NC[C@@H](C)C[C@H]2O)ccc2c1C[C@H]1[C@H]2CC=C2C[C@@H](O)CC[C@@]21C [Veratramine] |  |  | 9 | 2
38 | COc1ccc(C(=O)O[C@H]2CC[C@@]3(C)[C@@H]4CC[C@H]5[C@]6(O)C[C@H](O)[C@@]7(O)[C@@H](CN8C[C@@H](C)CC[C@H]8[C@@]7(C)O)[C@]6(O)C[C@@]53O[C@]24O)cc1OC [Veratridine] | 4 | 0 |  | 
39 | CC1=CC(=O)[C@@H]2C[C@H]1C2(C)C [Verbenone] | 4 | 4 |  | 
40 | Nc1nc(N)c(O[C@@H]2O[C@H](CO)[C@@H](O)[C@H](O)[C@H]2O)c(=O)[nH]1 [Vicine] | 0 | 0 |  | 
41 | CC[C@]12CCCN3CCc4c(n(c5ccccc45)C(=O)C1)[C@@H]32 [Vinburnine] | 0 |  |  | 
42 | CC[C@]12CCCN3CCc4c(n(c5ccccc45)[C@@](O)(C(=O)OC)C1)[C@@H]32 [Vincamine] | 0 |  |  | 
43 | CCC12C=CCN3CC[C@@]4(c5ccc(OC)cc5N(C)[C@H]4[C@@](O)(C(=O)OC)[C@@H]1OC(C)=O)[C@@H]32 (stereo partly drawn) [Vindoline] | 14 | 0 |  | 
44 | CCOC(=O)C1=C[C@]2(CC)CCCN3CCc4c(n1c1ccccc41)[C@@H]32 [Vinpocetine] | 0 |  |  | 
45 | CC1=C(C/C=C(\C)CCC[C@H](C)CCC[C@H](C)CCCC(C)C)C(=O)c2ccccc2C1=O [Vitamin K1] | 6 | 13 |  | 
46 | O=c1cc(-c2ccc(O)cc2)oc2c([C@@H]3O[C@H](CO)[C@@H](O)[C@H](O)[C@H]3O)c(O)cc(O)c12 [Vitexin] | 39 | 0 |  | 
47 | CC=C1CN(C)C2Cc3c([nH]c4ccccc34)C(c3cc4[nH]c5c(c4cc3OC)CCN3CC4CC(CC)C3C5(C(=O)OC)C4)CC1C2C(=O)OC (stereo not drawn) [Voacamine] | 0 | 0 |  | 
48 | CN1CC[C@]23C(=O)C[C@H]4C(=CCO[C@H]5CC(=O)N(c6c(O)cccc62)[C@H]3[C@H]54)C1 [Vomicine] | 0 | 0 |  | 
49 | C[C@@H](c1ncncc1F)[C@](O)(Cn1cncn1)c1ccc(F)cc1F [Voriconazole] | 19 | 0 |  | 
50 | CC(=O)OC[C@]12[C@H](OC(C)=O)[C@H](OC(C)=O)[C@@H]3[C@@H](OC(C)=O)[C@@]14O[C@@]3(C)COC(=O)c1cccnc1CCC(C)C(=O)O[C@@H]([C@H](OC(=O)c1ccco1)[C@@H]2OC(C)=O)[C@]4(C)O (stereo partly drawn) [Wilforgine] | 12 | 5 |  | 
51 | CC(=O)OC[C@]12[C@H](OC(C)=O)[C@H](OC(C)=O)[C@@H]3[C@@H](OC(C)=O)[C@@]14O[C@@]3(C)COC(=O)c1cccnc1CCC(C)C(=O)O[C@@H]([C@H](OC(=O)c1ccccc1)[C@@H]2OC(C)=O)[C@]4(C)O (stereo partly drawn) [Wilforine] | 23 | 9 |  | 
52 | COc1c(O)cc(O)c2c(=O)cc(-c3ccccc3)oc12 [Wogonin] |  |  | 23 | 5
53 | COc1cc(O)c(CC=C(C)C)c(O)c1C(=O)/C=C/c1ccc(O)cc1 [Xanthohumol] | 23 | 13 |  | 

From paper PMC11855827, “High-Throughput Screening of Five Compound Libraries for Anthelmintic Activity and Toxicity Leads to the Discovery of Two Flavonoid Compounds” (International Journal of Molecular Sciences, 2025)
